Laboratory results: patent publication US9309225B2, “N-((1-benzyl-1H-1,2,3-triazol-4-yl)methyl)arylamide compounds as potential anticancer agents and a process for the preparation thereof” (COUNCIL OF SCIENTIFIC & INDUSTRIAL RESEARCH, priority 2013, dated 2016)

Key:
A549/ATCC = experiment: NCI sixty human tumor cell line screen, Non-small-cell-lung panel; format: cell-based; conditions: NCI protocol
Experimental: (§1) The in vitro anticancer activity studies for these N-((1-benzyl-1H-1,2,3-triazol-4-yl)methyl) arylamide analogues were carried out at the National Cancer Institute, USA.
(§2) The N-((1-benzyl-1H-1,2,3-triazol-4-yl)methyl)arylamide analogues have been tested at NCI, USA, against sixty human tumor cell lines derived from nine cancer types (leukemia, non-small cell lung cancer, colon cancer, CNS cancer, melanoma cancer, ovarian cancer, renal cancer, prostate cancer and breast cancer). For these compounds results are expressed as growth inhibition (GI50) values as per NCI protocol.

EKVX = experiment: as above; format: cell-based; conditions: NCI protocol
Experimental: as §1, §2

HOP-62 = experiment: as above; format: cell-based; conditions: HOP-62, Non-small-cell-lung, NCI protocol
Experimental: as §1, §2

NCI-H226 = experiment: as above; format: cell-based; conditions: NCI protocol
Experimental: as §1, §2

NCI-H460 = experiment: as above; format: cell-based; conditions: NCI protocol
Experimental: as §1, §2

NCI-H522 = experiment: as above; format: cell-based; conditions: NCI protocol
Experimental: as §1, §2

COLO 205 = experiment: NCI sixty human tumor cell line screen, Colon panel; format: cell-based; conditions: COLO 205, Colon, NCI protocol
Experimental: as §1, §2

HCT-116 = experiment: as above; format: cell-based; conditions: HCT-116, Colon, NCI protocol
Experimental: as §1, §2

HT29 = experiment: as above; format: cell-based; conditions: HT-29, NCI protocol
Experimental: as §1, §2

KM12 = experiment: as above; format: cell-based; conditions: NCI protocol
Experimental: as §1, §2

SW-620 = experiment: as above; format: cell-based; conditions: SW-620, Colon, NCI protocol
Experimental: as §1, §2

SF-268 = experiment: NCI sixty human tumor cell line screen, CNS panel; format: cell-based; conditions: SF-268, CNS, NCI protocol
Experimental: as §1, §2

SF-295 = experiment: NCI sixty human tumor cell line screen, CNS panel; format: cell-based; conditions: SF-295, CNS, NCI protocol
Experimental: as §1, §2

SF-539 = experiment: NCI sixty human tumor cell line screen, CNS panel; format: cell-based; conditions: SF-539, CNS, NCI protocol
Experimental: as §1, §2

SNB-19 = experiment: NCI sixty human tumor cell line screen, CNS panel; format: cell-based; conditions: SNB-19, CNS, NCI protocol
Experimental: as §1, §2

SNB-75 = experiment: NCI sixty human tumor cell line screen, CNS panel; format: cell-based; conditions: SNB-75, CNS, NCI protocol
Experimental: as §1, §2

U251 = experiment: NCI sixty human tumor cell line screen, CNS panel; format: cell-based; conditions: U-251, NCI protocol
Experimental: as §1, §2

LOX IMVI = experiment: NCI sixty human tumor cell line screen, Melanoma panel; format: cell-based; conditions: NCI protocol
Experimental: as §1, §2

M14 = experiment: as above; format: cell-based; conditions: NCI protocol
Experimental: as §1, §2

MDA-MB-435 = experiment: as above; format: cell-based; conditions: MDA-MB-435, Melanoma, NCI protocol
Experimental: as §1, §2

SK-MEL-28 = experiment: as above; format: cell-based; conditions: SK-MEL-28, Melanoma, NCI protocol
Experimental: as §1, §2

SK-MEL-2 = experiment: as above; format: cell-based; conditions: SK-MEL-2, Melanoma, NCI protocol
Experimental: as §1, §2

SK-MEL-5 = experiment: as above; format: cell-based; conditions: SK-MEL-5, Melanoma, NCI protocol
Experimental: as §1, §2

UACC-62 = experiment: as above; format: cell-based; conditions: UACC-62, Melanoma, NCI protocol
Experimental: as §1, §2

NCI/ADR-RES = experiment: NCI sixty human tumor cell line screen, Ovarian panel; format: cell-based; conditions: NCI protocol
Experimental: as §1, §2

OVCAR-3 = experiment: as above; format: cell-based; conditions: OVCAR-3, Ovarian, NCI protocol
Experimental: as §1, §2

OVCAR-4 = experiment: as above; format: cell-based; conditions: OVCAR-4, Ovarian, NCI protocol
Experimental: as §1, §2

OVCAR-8 = experiment: as above; format: cell-based; conditions: OVCAR-8, Ovarian, NCI protocol
Experimental: as §1, §2

SK-OV-3 = experiment: as above; format: cell-based; conditions: SK-OV-3, Ovarian, NCI protocol
Experimental: as §1, §2

A498 = experiment: NCI sixty human tumor cell line screen, Renal panel; format: cell-based; conditions: NCI protocol
Experimental: as §1, §2

ACHN = experiment: as above; format: cell-based; conditions: NCI protocol
Experimental: as §1, §2

CAKI-1 = experiment: as above; format: cell-based; conditions: CAKI-1, Renal, NCI protocol
Experimental: as §1, §2

RXF 393 = experiment: as above; format: cell-based; conditions: RXF 393, Renal, NCI protocol
Experimental: as §1, §2

SN12C = experiment: as above; format: cell-based; conditions: NCI protocol
Experimental: as §1, §2

TK-10 = experiment: as above; format: cell-based; conditions: TK-10, Renal, NCI protocol
Experimental: as §1, §2

UO-31 = experiment: as above; format: cell-based; conditions: UO-31, Renal, NCI protocol
Experimental: as §1, §2

DU-145 = experiment: NCI sixty human tumor cell line screen, Prostate panel; format: cell-based; conditions: DU-145, Prostate, NCI protocol
Experimental: as §1, §2

PC-3 = experiment: as above; format: cell-based; conditions: PC-3, Prostate, NCI protocol
Experimental: as §1, §2

BT-549 = experiment: NCI sixty human tumor cell line screen, Breast panel; format: cell-based; conditions: BT-549, Breast, NCI protocol
Experimental: as §1, §2

MDA-MB-31/ATCC = experiment: as above; format: cell-based; conditions: NCI protocol
Experimental: as §1, §2

MDA-MB-468 = experiment: as above; format: cell-based; conditions: MDA-MB-468, Breast, NCI protocol
Experimental: as §1, §2

T-47D = experiment: as above; format: cell-based; conditions: T47D, NCI protocol
Experimental: as §1, §2

Which results are given for `O=C(NCc1cn(Cc2cccc(Oc3ccccc3)c2)nn1)c1cccnc1Nc1ccccc1` [Compound 1a, N-((1-(3-Phenoxybenzyl)-1H-1,2,3-triazol-4-yl)methyl)-2-(phenylamino)nicotinamide]?
GI50 (A549/ATCC): 4.81 µM; GI50 (EKVX): 5.18 µM; GI50 (HOP-62): 5.58 µM; GI50 (NCI-H226): 3.24 µM; GI50 (NCI-H460): 2.85 µM; GI50 (NCI-H522): 2.11 µM; GI50 (COLO 205): 2.79 µM; GI50 (HCT-116): 3.4 µM; GI50 (HT29): 3.65 µM; GI50 (KM12): 3.63 µM; GI50 (SW-620): 3.97 µM; GI50 (SF-268): 3.22 µM; GI50 (SF-295): 3.69 µM; GI50 (SF-539): 3.1 µM; GI50 (SNB-19): 3.27 µM; GI50 (SNB-75): 1.94 µM; GI50 (U251): 3.61 µM; GI50 (LOX IMVI): 4.54 µM; GI50 (M14): 2.86 µM; GI50 (MDA-MB-435): 2.65 µM; GI50 (SK-MEL-28): 4.93 µM; GI50 (SK-MEL-2): 6.05 µM; GI50 (SK-MEL-5): 3.89 µM; GI50 (UACC-62): 3.02 µM; GI50 (NCI/ADR-RES): 14 µM; GI50 (OVCAR-3): 17.7 µM; GI50 (OVCAR-4): 23.4 µM; GI50 (OVCAR-8): 7.44 µM; GI50 (SK-OV-3): 5.94 µM; GI50 (A498): 13.7 µM; GI50 (ACHN): 11.1 µM; GI50 (CAKI-1): 64.2 µM; GI50 (RXF 393): 5.69 µM; GI50 (SN12C): 52.9 µM; GI50 (TK-10): 24.5 µM; GI50 (UO-31): 86.3 µM; GI50 (DU-145): 8.58 µM; GI50 (PC-3): 20.4 µM; GI50 (BT-549): 45.5 µM; GI50 (MDA-MB-31/ATCC): 14.5 µM; GI50 (MDA-MB-468): 51.7 µM; GI50 (T-47D): 21.4 µM; melting point: 124 to 126 °C

What does the source list for `O=C(NCc1cn(Cc2cccc(Oc3ccccc3)c2)nn1)c1cccnc1Nc1ccc(F)cc1` [Compound 1b, 2-(4-Fluorophenylamino)-N-((1-(3-phenoxybenzyl)-1H-1,2,3-triazol4-yl)methyl)nicotinamide]?
GI50 (A549/ATCC): 6.11 µM; GI50 (EKVX): 25.3 µM; GI50 (HOP-62): 60.2 µM; GI50 (NCI-H226): 38.6 µM; GI50 (NCI-H460): 5.25 µM; GI50 (NCI-H522): 10.8 µM; GI50 (COLO 205): 6.22 µM; GI50 (HCT-116): 5.02 µM; GI50 (HT29): 5.6 µM; GI50 (KM12): 5.61 µM; GI50 (SW-620): 6.58 µM; GI50 (SF-268): 2.1 µM; GI50 (SF-295): 5.66 µM; GI50 (SF-539): 15.1 µM; GI50 (SNB-19): 20.7 µM; GI50 (SNB-75): 3.81 µM; GI50 (U251): 7.12 µM; GI50 (LOX IMVI): 61.3 µM; GI50 (M14): 13.7 µM; GI50 (MDA-MB-435): 2.79 µM; GI50 (SK-MEL-28): 7.98 µM; GI50 (SK-MEL-2): 34.2 µM; GI50 (SK-MEL-5): 4.48 µM; GI50 (UACC-62): 6.51 µM; GI50 (NCI/ADR-RES): 2.12 µM; GI50 (OVCAR-3): 2.98 µM; GI50 (OVCAR-4): 5.19 µM; GI50 (OVCAR-8): 3.72 µM; GI50 (SK-OV-3): 3.11 µM; GI50 (A498): 2.35 µM; GI50 (ACHN): 4.79 µM; GI50 (CAKI-1): 3.41 µM; GI50 (RXF 393): 2.59 µM; GI50 (SN12C): 4.75 µM; GI50 (TK-10): 4.59 µM; GI50 (UO-31): 3 µM; GI50 (DU-145): 3.76 µM; GI50 (PC-3): 3.86 µM; GI50 (BT-549): 4.58 µM; GI50 (MDA-MB-31/ATCC): 3.09 µM; GI50 (MDA-MB-468): 2.32 µM; GI50 (T-47D): 4.03 µM; melting point: 160 to 162 °C
